For data set [1] the following is noted: as reported in WO 2006/034797, page 2, lines 5-7; cited from earlier work.
The nature of data set [2]: stability of crystalline form in water suspension (no hydrolysis of the PTSA moiety). It counts as physicochemical. The conditions noted are these: about 20° C., stable = no hydrolysis of the PTSA moiety in water for at least about 48 hours. On the procedure: Sorafenib hemi-tosylate Form A is a stable crystalline form in water suspensions at a temperature of about 20° C., making it ideal for use in the preparation of a dosage form, particularly when the process of wet granulation is used.

We go through two compounds from patent US8217061B2, “Polymorphs of sorafenib tosylate and sorafenib hemi-tosylate, and processes for preparation thereof” (Sicor Inc., priority 2008, dated 2012).

For `CNC(=O)c1cc(Oc2ccc(NC(=O)Nc3ccc(Cl)c(C(F)(F)F)c3)cc2)ccn1.Cc1ccc(S(=O)(=O)O)cc1` [form II, 4-(4-{3-[4-chloro-3-(trifluoromethyl)phenyl]ureido}phenoxy)-N2-methylpyridine-2-carboxamide 4-methylbenzenesulfonate], the “stability of polymorphic form” value in data set [1] is given as “meta stable”.

As for “Sorafenib hemi-tosylate [Sorafenib hemi-tosylate Form A]”, in data set [2], the “stability of crystalline form in water suspensions” value is reported as “stable”.
